The results in this text go back to patent publication US20040091407A1, “Novel process for preparing crystalline particles” (priority 2000, published 2004).

The data set in a line: Particle size measurement using a Malvern Particle Sizer S. To be noted: crystalline particles of the calcium salt monohydrate prepared by sonocrystallisation. The class given is physicochemical. The method, then: Particle size of the two samples were measured using a Malvern Particle Sizer S. The (v0.5) values are as shown below: […]

Regarding `C/C(=C/C(=O)c1ccccc1)N[C@@H](Cc1ccc(OCCc2nc(-c3ccccc3)oc2C)cc1)C(=O)[O-].C/C(=C/C(=O)c1ccccc1)N[C@@H](Cc1ccc(OCCc2nc(-c3ccccc3)oc2C)cc1)C(=O)[O-].[Ca+2]` [Sample 1, calcium salt of (2S)-2-{[(Z)-1-methyl-3-oxo-3-phenyl-1-propenyl]amino}-3-{4-[2-(5-methyl-2-phenyl-1,3-oxazol-4-yl)ethoxy]phenyl}propanoic acid], the “D(v,0.5) particle size” value is on record as 32.2 microns.
The figure for `C/C(=C/C(=O)c1ccccc1)N[C@@H](Cc1ccc(OCCc2nc(-c3ccccc3)oc2C)cc1)C(=O)[O-].C/C(=C/C(=O)c1ccccc1)N[C@@H](Cc1ccc(OCCc2nc(-c3ccccc3)oc2C)cc1)C(=O)[O-].[Ca+2]` [Sample 2, calcium salt of (2S)-2-{[(Z)-1-methyl-3-oxo-3-phenyl-1-propenyl]amino}-3-{4-[2-(5-methyl-2-phenyl-1,3-oxazol-4-yl)ethoxy]phenyl}propanoic acid] is 42.3 microns.
